Data reported in patent publication US11420975B2, “Substituted imidazo[1,5-a]pyrazines as Bruton's tyrosine kinase inhibitors” (TRANSTHERA SCIENCES (NANJING), INC., priority 2018, dated 2022).

How the values were obtained:
BTK(C481S) = BTK(C481S) (Homo sapiens (Human), UniProt Q06187, C481S); assay: In vitro inhibitory activity against BTK(C481S) enzyme (33P-ATP filter binding); assay type: biochemical; settings: class symbols; read-out: IC50 BTK(C48IS)
Method: (§1) The substrate solution was prepared by adding the substrate poly(Glu, Tyr) sodium salt (Sigma Aldrich, St. Louis, Mo.) to the substrate reaction buffer (20 mM Hepes (pH 7.5), 10 mM MgCl2, 1 mM EGTA, 0.02% Brij35, 0.02 mg/mL BSA, 0.1 mM Na3VO4, 2 mM DTT and 1% DMSO) (final substrate concentration in the reaction solution was 0.2 μM). Test compound was formulated into stock solutions at 10 mM concentration with 100% DMSO, and 3-fold serial dilution for 10 doses was performed in a 384-well cyclic olefin copolymer LDV microplate. […] Test compound in 100% DMSO was then added to the kinase reaction mixture by acoustic liquid transfer technology (Echo 550; nanoliter range) (Labcyte Inc, Sunnyvale, Calif.) and incubated for 20 min at room temperature. 33P-ATP (specific activity 10 μCi/μL) was added to the reaction mixture to initiate the reaction, followed by incubation at room temperature for 2 h. A small portion of the reaction mixture was dropped onto P-81 ion exchange filter paper (Whatman). After washing the unbound phosphate from the filter paper with 0.75% phosphate buffer (three times) and drying, the remaining radioactivity on the filter paper was measured. The kinase activity was expressed as the percentage of the remaining kinase activity in the test sample to the kinase activity in the vehicle (dimethyl sulfoxide) blank control. IC50 values were calculated by curve fitting the data obtained using Prism (GraphPad Software).

BTK(wt) = BTK(wt) (Homo sapiens (Human), UniProt Q06187); assay: In vitro inhibitory activity against BTK(wt) enzyme (33P-ATP filter binding); assay type: biochemical; settings: class symbols
Sequence of BTK(wt) (Q06187 whole entry): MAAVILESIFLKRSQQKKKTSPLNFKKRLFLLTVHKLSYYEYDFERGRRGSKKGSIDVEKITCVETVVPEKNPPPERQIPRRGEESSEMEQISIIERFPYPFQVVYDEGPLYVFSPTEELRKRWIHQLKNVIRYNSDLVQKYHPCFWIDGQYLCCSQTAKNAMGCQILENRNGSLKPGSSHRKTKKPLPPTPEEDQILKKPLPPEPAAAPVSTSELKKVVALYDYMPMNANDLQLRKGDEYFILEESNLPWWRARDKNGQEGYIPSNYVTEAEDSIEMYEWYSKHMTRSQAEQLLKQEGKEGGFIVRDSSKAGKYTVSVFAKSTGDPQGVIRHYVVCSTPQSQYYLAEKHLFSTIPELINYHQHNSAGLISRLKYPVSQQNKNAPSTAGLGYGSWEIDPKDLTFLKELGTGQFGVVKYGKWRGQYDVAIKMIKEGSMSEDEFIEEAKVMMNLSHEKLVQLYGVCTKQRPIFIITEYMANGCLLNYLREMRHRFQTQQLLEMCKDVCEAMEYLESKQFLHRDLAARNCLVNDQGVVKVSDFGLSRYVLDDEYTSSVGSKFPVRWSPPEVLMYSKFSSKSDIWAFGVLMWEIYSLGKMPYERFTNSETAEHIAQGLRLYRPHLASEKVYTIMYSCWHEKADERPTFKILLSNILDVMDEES
Method: as §1

Sequence of BTK(C481S) (Q06187 whole entry C481S): as the sequence (Q06187 whole entry) above, with C481S counted along it

SMILES | IC50 (BTK(C481S)) | IC50 (BTK(wt))
Nc1nccn2c(C34CCC(NC(=O)c5nccs5)(CC3)C4)nc(-c3ccc(C(=O)Nc4cc(C(F)(F)F)ccn4)cc3)c12 [Compound A-10-22, N-(4-(8-amino-1-(4-((4-(trifluoromethyl)pyridin-2-yl)carbamoyl)phenyl)imidazo[1,5-a]pyrazin-3-yl)bicyclo[2.2.1]heptan-1-yl)thiazole-2-carboxamide] | 1 to 10 nM | 1 to 10 nM
CC(C)(O)C(=O)NC12CCC(c3nc(-c4ccc(Oc5ccccc5)cc4)c4c(N)nccn34)(CC1)C2 [Compound A-13-1, N-(4-(8-amino-1-(4-phenoxyphenyl)imidazo[1,5-a]pyrazin-3-yl)bicyclo[2.2.1]heptan-1-yl)-2-hydroxy-2-methylpropanamide] | 1 to 10 nM | 1 to 10 nM
COCCC(=O)NC12CCC(c3nc(-c4ccc(Oc5ccccc5)cc4)c4c(N)nccn34)(CC1)C2 [Compound A-13-2, N-(4-(8-amino-1-(4-phenoxyphenyl)imidazo[1,5-a]pyrazin-3-yl)bicyclo[2.2.1]heptan-1-yl)-3-methoxypropanamide] | 0.1 to 1 nM | 1 to 10 nM
CC1(C(=O)NC23CCC(c4nc(-c5ccc(Oc6ccccc6)cc5)c5c(N)nccn45)(CC2)C3)COC1 [Compound A-13-3, N-(4-(8-amino-1-(4-phenoxyphenyl)imidazo[1,5-a]pyrazin-3-yl)bicyclo[2.2.1]heptan-1-yl)-3-methyloxetane-3-carboxamide] | 1 to 10 nM | 1 to 10 nM
Nc1nccn2c(C34CCC(NC(=O)CN5CCOCC5)(CC3)C4)nc(-c3ccc(Oc4ccccc4)cc3)c12 [Compound A-13-4, N-(4-(8-amino-1-(4-phenoxyphenyl)imidazo[1,5-a]pyrazin-3-yl)bicyclo[2.2.1]heptan-1-yl)-2-morpholinoacetamide] | 1 to 10 nM | 10 to 50 nM
COc1ccc(F)cc1C(=O)NCc1ccc(-c2nc(C34CCC(NC(=O)C(C)(C)O)(CC3)C4)n3ccnc(N)c23)cc1 [Compound A-16-1, N-(4-(8-amino-3-(4-(2-hydroxy-2-methylpropanamido)bicyclo[2.2.1]heptan-1-yl)imidazo[1,5-a]pyrazin-1-yl)benzyl)-5-fluoro-2-methoxybenzamide] | 1 to 10 nM | 10 to 50 nM
COCCC(=O)NC12CCC(c3nc(-c4ccc(CNC(=O)c5cc(F)ccc5OC)cc4)c4c(N)nccn34)(CC1)C2 [Compound A-16-2, N-(4-(8-amino-3-(4-(3-methoxypropanamido)bicyclo[2.2.1]heptan-1-yl)imidazo[1,5-a]pyrazin-1-yl)benzyl)-5-fluoro-2-methoxybenzamide] | 1 to 10 nM | 1 to 10 nM
COc1ccc(F)cc1C(=O)NCc1ccc(-c2nc(C34CCC(NC(=O)C5(C)COC5)(CC3)C4)n3ccnc(N)c23)cc1 [Compound A-16-3, N-(4-(8-amino-1-(4-((5-fluoro-2-methoxybenzamido)methyl)phenyl)imidazo[1,5-a]pyrazin-3-yl)bicyclo[2.2.1]heptan-1-yl)-3-methyloxetane-3-carboxamide] | 1 to 10 nM | 1 to 10 nM
COc1ccc(F)cc1C(=O)NCc1ccc(-c2nc(C34CCC(NC(=O)CN5CCOCC5)(CC3)C4)n3ccnc(N)c23)cc1 [Compound A-16-4, N-(4-(8-amino-3-(4-(2-morpholinoacetamido)bicyclo[2.2.1]heptan-1-yl)imidazo[1,5-a]pyrazin-1-yl)benzyl)-5-fluoro-2-methoxybenzamide] | 1 to 10 nM | 1 to 10 nM
CC#CC(=O)NC12CCC(n3cc(-c4ccc(C(=O)Nc5cc(C(F)(F)F)ccn5)cc4)c4c(N)ncnc43)(CC1)C2 [Compound B-6-1, 4-(4-amino-7-(4-(but-2-ynamido)bicyclo[2.2.1]heptan-1-yl)-7H-pyrrolo[2,3-d]pyrimidin-5-yl)-N-(4-(trifluoromethyl)pyridin-2-yl)benzamide] | 1 to 10 nM | 1 to 10 nM
CC(C)(O)C(=O)NC12CCC(n3cc(-c4ccc(C(=O)Nc5cc(C(F)(F)F)ccn5)cc4)c4c(N)ncnc43)(CC1)C2 [Compound B-6-2, 4-(4-amino-7-(4-(2-hydroxy-2-methylpropanamido)bicyclo[2.2.1]heptan-1-yl)-7H-pyrrolo[2,3-d]pyrimidin-5-yl)-N-(4-(trifluoromethyl)pyridin-2-yl)benzamide] | 1 to 10 nM | 10 to 50 nM
COCCC(=O)NC12CCC(n3cc(-c4ccc(C(=O)Nc5cc(C(F)(F)F)ccn5)cc4)c4c(N)ncnc43)(CC1)C2 [Compound B-6-3, 4-(4-amino-7-(4-(3-methoxypropanamido)bicyclo[2.2.1]heptan-1-yl)-7H-pyrrolo[2,3-d]pyrimidin-5-yl)-N-(4-(trifluoromethyl)pyridin-2-yl)benzamide] | 1 to 10 nM | 1 to 10 nM
CC1(C(=O)NC23CCC(n4cc(-c5ccc(C(=O)Nc6cc(C(F)(F)F)ccn6)cc5)c5c(N)ncnc54)(CC2)C3)COC1 [Compound B-6-4, N-(4-(4-amino-5-(4-((4-(trifluoromethyl)pyridin-2-yl)carbamoyl)phenyl)-7H-pyrrolo[2,3-d]pyrimidin-7-yl)bicyclo[2.2.1]heptan-1-yl)-3-methyloxetane-3-carboxamide] | 1 to 10 nM | 1 to 10 nM
Nc1ncnc2c1c(-c1ccc(C(=O)Nc3cc(C(F)(F)F)ccn3)cc1)cn2C12CCC(NC(=O)CN3CCOCC3)(CC1)C2 [Compound B-6-5, 4-(4-amino-7-(4-(2-morpholinoacetamido)bicyclo[2.2.1]heptan-1-yl)-7H-pyrrolo[2,3-d]pyrimidin-5-yl)-N-(4-(trifluoromethyl)pyridin-2-yl)benzamide] | 1 to 10 nM | 1 to 10 nM
CC#CC(=O)NC12CCC(n3c(=O)n(-c4ccc(C(=O)Nc5cc(C(F)(F)F)ccn5)cc4)c4c(N)ncnc43)(CC1)C2 [Compound C-7-1, 4-(6-amino-9-(4-(but-2-ynamido)bicyclo[2.2.1]heptan-1-yl)-8-oxo-8,9-dihydro-7H-purin-7-yl)-N-(4-(trifluoromethyl)pyridin-2-yl)benzamide] | 1 to 10 nM | 1 to 10 nM
Nc1ncnc2c1n(-c1ccc(C(=O)Nc3cc(C(F)(F)F)ccn3)cc1)c(=O)n2C12CCC(NC(=O)CN3CCOCC3)(CC1)C2 [Compound C-7-2, 4-(6-amino-9-(4-(2-morpholinoacetamido)bicyclo[2.2.1]heptan-1-yl)-8-oxo-8,9-dihydro-7H-purin-7-yl)-N-(4-(trifluoromethyl)pyridin-2-yl)benzamide] | 0.1 to 1 nM | 1 to 10 nM
